Test results: patent publication US20160331717A1, “CABAZITAXEL AND ITS USE FOR TREATING CANCER” (AVENTIS PHARMA S.A., priority 2015, published 2016)
Read-outs that look alike come from different tables or passages of the source.

Columns and labels:
[1] = POH0124; CV=38.8%, n=170; cited from earlier work
[2] = tested on: advanced solid tumor patients with varying degrees of hepatic impairment; conditions: for maximum tolerated dose (MTD): 1-hour IV infusion every 3 weeks; for death related to study drug: one patient
Method: • The primary endpoint was the occurrence of DLTs during Cycle 1. • The secondary endpoints were: • Treatment-emergent adverse events (TEAEs); • Laboratory abnormalities; and, • Pharmacokinetic parameters (Cmax, Ceoi, tmax, tlast, AUClast, AUCO-24, AUCO-72, t1/2z, AUC, CL and Vss). • The effect of the degree of hepatic impairment on cabazitaxel PK parameters was evaluated according to a linear mixed effects model (Log [parameter]=Cohort+Error) with a fixed term for Cohort, fit by estimated generalized least squares (GLS) using SAS PROC MIXED. Estimate and 90% confidence interval (CI) for the geometric mean ratio of each cohort versus Cohort 1 and of Cohorts 3 and 4 versus Cohort 2 were provided for CL, CL/BSA, and exposure parameters (Cmax, AUC, AUClast, AUCO-24 and AUCO-72) normalized to actual cabazitaxel dose in mg/m^2.
• The study was designed as an open-label, dose-escalation, multi-center study of cabazitaxel administered as a 1-hour intravenous (IV) infusion every 3 weeks in cancer patients with varying degrees of hepatic impairment. Patients were enrolled in 4 cohorts based on hepatic function at baseline graded by total bilirubin and aspartate aminotransferase (AST): • Cohort 1: normal hepatic function (total bilirubin supper limit of normal [ULN]; aspartate aminotransferase [AST]≦ULN), • Cohort 2: mild hepatic impairment (total bilirubin >1 to ≦1.5×ULN or AST>1.5×ULN), • Cohort 3: moderate hepatic impairment (total bilirubin >1.5× to ≦3.0×ULN; AST=any), • Cohort 4: severe hepatic impairment (total bilirubin >3.0×-10×ULN; AST=any). • All liver function tests must be completed within 48 hours prior to start of treatment, and reviewed by the investigator or their designee before treatment administration.
Cabazitaxel is administered on Day 1 of each 3-week cycle. Patients received cabazitaxel administered by IV infusion over 1 hour at the dose specified for each cohort. The actual amount of cabazitaxel administered was adjusted at each cycle based on body surface area (BSA) to a maximum BSA of 2.1 m^2 (i.e., patients with a BSA over 2.1 m2 will receive the same amount of cabazitaxel as those with a BSA of 2.1 m).
For Cohorts 2, 3 and 4, dose-escalation was based on dose-limiting toxicities (DLTs) during Cycle 1; real time PK information was used along with safety information. The maximum administered dose (MAD) was to be reached at the dose level when at least 2 patients develop a DLT during Cycle 1. The MTD was defined as the highest dose at which no more than 0 of the first 3 patients, or 1 of 6 patients, experience a DLT during Cycle 1, to a maximum dose of 25 mg/m2. The MTD was one dose level below the MAD.
To be considered a DLT, the clinical adverse event (AE) or laboratory abnormality should be drug-related as assessed by the investigator.
Liver DLTs in patients with hepatic dysfunction (Cohorts 2, 3 and 4) were defined as an increase in total and direct bilirubin and/or transaminase levels to 3 times the baseline value.

[3] = Pharmacokinetics of cabazitaxel in POP6792 (plasma, LC-MS/MS, Cycle 1); format: in vivo, human
Method: Total cabazitaxel concentrations in plasma were determined using a validated liquid chromatography with tandem mass spectrometry method (LC-MS/MS) with a lower limit of quantification (LLOQ) of 1 ng/mL.

[4] = Cohort 2, mild hepatic impairment
[5] = Cohort 3 at the MTD, 4/7 patients

CO[C@H]1C(=O)[C@]2(C)[C@@H](OC)C[C@H]3OC[C@@]3(OC(C)=O)[C@H]2[C@H](OC(=O)c2ccccc2)[C@]2(O)C[C@H](OC(=O)[C@H](O)[C@@H](NC(=O)OC(C)(C)C)c3ccccc3)C(C)=C1C2(C)C [cabazitaxel, 4α-acetoxy-2α-benzoyloxy-5β,20-epoxy-1-hydroxy-7, 101-dimethoxy-9-oxo-11-taxen-13α-yl (2R,3S)-3-tert-butoxycarbonyl-amino-2-hydroxy-3-phenylpropionate]
typical cabazitaxel clearance (CL/BSA) by population PK analysis [1]: 26.4 L/h/m2 | maximum administered dose (MAD) [2, 4]: 25 mg/m2 | maximum tolerated dose (MTD) [2, 4]: 20 mg/m^2 | death related to study drug ([2]; Cohort 2/20 mg/m^2): died due to Gr 4 Candida sepsis related to study drug | maximum tolerated dose (MTD) ([2]; Cohort 3, moderate hepatic impairment): 15 mg/m^2 | study drug-related febrile neutropenia, patients ([2]; Cohort 3 at the MTD, 1/7 patients): 14.3% | study drug-related TEAE diarrhea, patients ([2]; Cohort 3 at the MTD, 3/7 patients): 42.9% | Gr≧3 on-treatment neutrophil count decreased, patients [2, 5]: 57.1% | Gr≧3 on-treatment white blood cell count decreased, patients [2, 5]: 57.1% | death related to study drug ([2]; Cohort 4/20 mg/m^2): died due to a combination of shock, acute renal failure, tumor lysis syndrome (all related to study drug) | death due to disease progression, patients ([2]; all cohorts, 21/43 patients): 48.8% | patients who died by the cut-off date ([2]; all cohorts, 23 of 43 patients): 53.5% | study drug-related TEAE diarrhea, patients ([2]; human, in vivo): 41.7% | study drug-related TEAE fatigue, patients ([2]; human, in vivo): 83.3% | study drug-related serious TEAE febrile neutropenia, patients ([2]; human, in vivo): 25.0% | study drug-related serious TEAE neutropenia (Gr≧3), patients ([2]; human, in vivo): 33.3% | maximum administered dose (MAD) ([2]; human, in vivo, 3 weeks): 20 mg/m2 | febrile neutropenia ([2]; in vivo): No patient experienced febrile neutropenia | safety profile at the MTD ([2]; patients with mild or moderate hepatic impairment): generally similar to that observed at 25 mg/m^2 in patients with normal hepatic function | CL/BSA estimate ([3]; Cohort 1, normal hepatic function, 90% CI: 8.6-20.8): 13.4 L/h/m2 | CL/BSA estimate ([3]; Cohort 2, mild hepatic impairment, 90% CI: 17.6-31.4): 23.5 L/h/m2 | CL/BSA geometric mean ratio ([3]; Cohort 2 versus Cohort 1, 75% increase, 90% CI: 1.04-2.96): 1.75 | mean CL/BSA ([3]; Cohort 3/10 mg/m^2 (aberrant PK behavior, excluded from statistical analysis)): 517 L/h/m2 | CL/BSA geometric mean ratio, sensitivity analysis ([3]; Cohort 3 versus Cohort 2, after exclusion of patients with erratic PK profile, 6% decrease, 90% CI: 0.64-1.38): 0.94 | AUClast/dose geometric mean ratio ([3]; Cohort 3 versus Cohort 2, 14% decrease, 90% CI: 0.50-1.46): 0.86 | CL/BSA geometric mean ratio ([3]; Cohort 3 versus Cohort 2, 19% increase, 90% CI: 0.74-1.91): 1.19 | CL/BSA geometric mean ratio, sensitivity analysis ([3]; Cohort 4 versus Cohort 2, after exclusion of patients with erratic PK profile, 39% decrease, 90% CI: 0.36-1.05): 0.61 | AUClast/dose geometric mean ratio ([3]; Cohort 4 versus Cohort 2, 17% increase, 90% CI: 0.63-2.14): 1.17 | CL/BSA geometric mean ratio ([3]; Cohort 4 versus Cohort 2, 23% decrease, 90% CI: 0.39-1.53): 0.77 | mean CL/BSA, Cohort 3/10 mg/m^2 versus other Cohort 3 patients ([3]; higher): approximately 20 fold | effect of hepatic impairment on cabazitaxel clearance ([3]; mild or moderate hepatic impairment): no evidence that mild or moderate hepatic impairment results in a substantial decline in cabazitaxel clearance | CL/BSA estimate ([3]; moderate hepatic impairment): 27.9 L/h/m2 | mean CL/BSA ([3]; other Cohort 3 patients, 15 and 20 mg/m2): 30.5 L/h/m2 | CL/BSA estimate ([3]; severe hepatic impairment): 18.1 L/h/m2
